Measurements taken from ChEMBL document CHEMBL1201862, “PubChem BioAssay data set” (2004).
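The compound was tested at five concentrations on cells cultured in 96-well plates, with a 48-hour exposure period. The concentration for 50% growth inhibition is given as GI50.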 Active and inactive are the calls of the source. Rule as the data show it: active = GI50 up to about 1.1 µM and inactive = higher.

Experiments:
Assay in all cases: NCI-60 cell line screen, 48 h
SNB-75 = system: SNB-75
U-251 = system: U-251
SK-OV-3 = system: SK-OV-3
UACC-257 = system: UACC-257
LOX IMVI = system: LOX IMVI
OVCAR-8 = system: OVCAR-8
HOP-92 = system: HOP-92
ACHN = system: ACHN
SW-620 = system: SW-620
TK-10 = system: TK-10
NCI-H460 = system: NCI-H460
NCI-H23 = system: NCI-H23
MDA-MB-231 = system: MDA-MB-231
K562 = system: K562
T47D = system: T47D
MOLT-4 = system: MOLT-4
HOP-62 = system: HOP-62
M14 = system: M14
DU-145 = system: DU-145
MCF7 = system: MCF7

| SMILES | GI50 (SNB-75) | GI50 (U-251) | GI50 (SK-OV-3) | GI50 (UACC-257) | GI50 (LOX IMVI) | GI50 (OVCAR-8) | GI50 (HOP-92) | GI50 (ACHN) | GI50 (SW-620) | GI50 (TK-10) | GI50 (NCI-H460) | GI50 (NCI-H23) | GI50 (MDA-MB-231) | GI50 (K562) | GI50 (T47D) | GI50 (MOLT-4) | GI50 (HOP-62) | GI50 (M14) | GI50 (DU-145) | GI50 (MCF7) |
| --- | --- | --- | --- | --- | --- | --- | --- | --- | --- | --- | --- | --- | --- | --- | --- | --- | --- | --- | --- | --- |
| CC(C)/C(Cl)=N/OC(=O)Nc1cccc(C(F)(F)F)c1 | 5.04 µM (inactive) | 17 µM (inactive) | 17.7 µM (inactive) | 15.4 µM (inactive) | 2.51 µM (inactive) | 14.5 µM (inactive) | 1.75 µM (inactive) | 1.69 µM (inactive) | 1.35 µM (inactive) | 3.5 µM (inactive) | 17.8 µM (inactive) | 14.5 µM (inactive) | 6.68 µM (inactive) | 1.54 µM (inactive) | 4.1 µM (inactive) | 1.67 µM (inactive) | 18.1 µM (inactive) | 3.52 µM (inactive) | 17.3 µM (inactive) | 5.35 µM (inactive) |
| O=[N+]([O-])c1nccn1CCCNCCCn1ccnc1[N+](=O)[O-] | > 100 µM (inactive) | > 100 µM (inactive) | > 100 µM (inactive) | > 100 µM (inactive) | 74.6 µM (inactive) | > 100 µM (inactive) | > 100 µM (inactive) | > 100 µM (inactive) | > 100 µM (inactive) | > 100 µM (inactive) | > 100 µM (inactive) | > 100 µM (inactive) | > 100 µM (inactive) | > 100 µM (inactive) | > 100 µM (inactive) | > 100 µM (inactive) | > 100 µM (inactive) | > 100 µM (inactive) | > 100 µM (inactive) | > 100 µM (inactive) |
| CC(C)(C)OC(=O)NCCCCC(N)C(N)=O (stereo not given) | > 100 µM (inactive) | > 100 µM (inactive) | 54.7 µM (inactive) | > 100 µM (inactive) | > 100 µM (inactive) | > 100 µM (inactive) | > 100 µM (inactive) | > 100 µM (inactive) | > 100 µM (inactive) | > 100 µM (inactive) | > 100 µM (inactive) | > 100 µM (inactive) | > 100 µM (inactive) | > 100 µM (inactive) | > 100 µM (inactive) | > 100 µM (inactive) | > 100 µM (inactive) | > 100 µM (inactive) | > 100 µM (inactive) | > 100 µM (inactive) |
| COC(=O)/C(C#N)=C(/NCCN)Nc1ccccc1 | 57.3 µM (inactive) | > 100 µM (inactive) | > 100 µM (inactive) | > 100 µM (inactive) | > 100 µM (inactive) | > 100 µM (inactive) | > 100 µM (inactive) | > 100 µM (inactive) | > 100 µM (inactive) | > 100 µM (inactive) | > 100 µM (inactive) | > 100 µM (inactive) | > 100 µM (inactive) | > 100 µM (inactive) | > 100 µM (inactive) | > 100 µM (inactive) | > 100 µM (inactive) | > 100 µM (inactive) | > 100 µM (inactive) | > 100 µM (inactive) |
| CN(C)/C=N/S(=O)(=O)c1nn2c(C=O)c(-c3ccccc3)nc2s1 | 59.7 µM (inactive) | 15.9 µM (inactive) | > 80.5 µM (inactive) | 24.2 µM (inactive) | 14.7 µM (inactive) | 8.41 µM (inactive) | 17.5 µM (inactive) | 5.65 µM (inactive) | 3.76 µM (inactive) | 12.9 µM (inactive) | 20.8 µM (inactive) | 19.7 µM (inactive) | 6.81 µM (inactive) | 3.9 µM (inactive) | 15.7 µM (inactive) | 3.21 µM (inactive) | 47.2 µM (inactive) | 2.51 µM (inactive) | 23.4 µM (inactive) | 4.93 µM (inactive) |
| COc1ccc2c(c1)c1c3c(ccc4ncn2c43)N(CCO)CCN=1 | 0.306 µM (active) | 0.254 µM (active) | 0.305 µM (active) | 0.391 µM (active) | 0.151 µM (active) | 0.0927 µM (active) | 2.07 µM (inactive) | 0.146 µM (active) | 0.802 µM (active) | 0.389 µM (active) | 0.132 µM (active) | 0.191 µM (active) | 0.183 µM (active) | 0.0586 µM (active) | 0.263 µM (active) | 0.026 µM (active) | 0.132 µM (active) | 0.271 µM (active) | 0.282 µM (active) | 0.189 µM (active) |
| O=[N+]([O-])c1ccc(C2CC(c3ccccc3Cl)=Nc3ccccc3[S+]2[O-])cc1 (stereo not given) | 5.55 µM (inactive) | 3.05 µM (inactive) | 19.8 µM (inactive) | 15.8 µM (inactive) | 2.07 µM (inactive) | 2.87 µM (inactive) | 15.3 µM (inactive) | 2.01 µM (inactive) | 1.98 µM (inactive) | 8.02 µM (inactive) | 4.27 µM (inactive) | 4.13 µM (inactive) | 2.29 µM (inactive) | 1.37 µM (inactive) | 12.8 µM (inactive) | 1.9 µM (inactive) | 7.19 µM (inactive) | 5.71 µM (inactive) | 15.5 µM (inactive) | 2.34 µM (inactive) |
